Reference: article PMC11148078, “Potent activity of polymyxin B is associated with long-lived super-stoichiometric accumulation mediated by weak-affinity binding to lipid A” (Nature Communications, 2024)
Like-named read-outs stand apart in the source and are kept apart here. Bridge positions count the residues as written; N and C are the ends. Square brackets hold non-standard residues; d marks the D form. Peptide text beside a SMILES is read from it. * marks the point of attachment. X1 = CC[C@H](C)CCCCC(=O)*; Dab = NCC[C@H](N)C(=O)O

Experiments:
E. coli mcr1 = type: cell-based; details: for MIC: strain carrying plasmid encoding mcr-1, LB + 0.2% arabinose, carbenicillin, 0.0005% tween-80, overnight 37 °C
Protocol: (§1) Bacterial strains and plasmids are listed in SI Table S5. LB growth media was prepared according to manufacturer’s instructions and supplemented with 0.2% arabinose and carbenicillin (50 μg/mL) for the strains containing pBAD24-mcr1 plasmid. Cultures were started by inoculating 3 ml LB with 1–2 colonies from fresh overnight plates and grown at 37 °C until in log phase. Modified minimal inhibitory concentration (MIC) assays were performed in 96-well round bottom polystyrene plates (Corning) with a final volume of 100 µl in LB supplemented with tween-80 at 0.0005%. […] Polymyxin B sulfate (TCI Co. Ltd), polymyxin B nonapeptide (PMBN) (Sigma), and brevicidine (Genentech) were diluted directly in the assay plates. Bacteria were diluted in LB with tween-80 0.0005% and added to a final OD600 of 0.0005. Growth was measured via OD600 on a SpectraMax M5 plate reader after overnight static growth at 37 °C with humidity.

E. coli PmrA^G53E = type: cell-based; details: for MIC: LB + 0.0005% tween-80, overnight 37 °C
Protocol: as §1

wt-OMVs = assay: SPR steady-state affinity of reversible (saw-tooth) binding, wt-OMVs; design: species or system E. coli; details: n=4, (SD), read-out: Apparent KD
Protocol: An apparent-KD was measured for the reversible saw-tooth binding profile where polymyxin B was titrated over an OMV surface pre-saturated with the stable binding component (Supplementary Information Fig. S11B). […] No pre-saturation was necessary when using resistant-OMVs or PMBN as these lack the stable component (Fig. 2B, D–F).
Binding and kinetic analysis of SPR-OMV assays
To determine the apparent- KD of the reversible binding event of polymyxin B, single-cycle kinetics were performed as described in Materials and Methods. After OMVs were loaded, 5 µM polymyxin B was injected for 360 sec ([…] flow rate) followed by 120 sec dissociations to saturate the stable-binding population prior to the sample injections. The base-to-peak value of each trace was determined from double-referenced traces (reference 1: - OMVs/ + compound channel; reference 2: + OMVs/ - compound) exported from the Biacore S200 evaluation software into PRISM 9 software. The change in RU with each pulse was plotted over the concentration and the KD determined by fitting a non-linear regression, one-site total function with background parameter set to 0 (GraphPad Prism version 9.3.1 for Mac, GraphPad Software, San Diego, California USA, www.graphpad.com). […]

Compound	MIC (E. coli mcr1)	MIC (E. coli PmrA^G53E)	Kd (wt-OMVs; no pre-saturation)	antibacterial activity (E. coli mcr1; pBAD-mcr-1)	antibacterial activity (E. coli PmrA^G53E)	Kd (wt-OMVs; isolated reversible binding, OMVs pre-saturated with 5 µM polymyxin B)
CC(C)C[C@@H]1NC(=O)[C@@H](Cc2ccccc2)NC(=O)[C@H](CCN)NC(=O)[C@@H](NC(=O)[C@H](CCN)NC(=O)[C@@H](N)[C@@H](C)O)CCNC(=O)[C@H]([C@@H](C)O)NC(=O)[C@H](CCN)NC(=O)[C@H](CCN)NC1=O [PMBN] (H-T[Dab][Dab][Dab][dF]L[Dab][Dab]T; lactam 3-C)	>40 µM	>40 µM	288 nM			
CC[C@H](C)CCCCC(=O)N[C@@H](CCN)C(=O)N[C@H](C(=O)N[C@@H](CCN)C(=O)N[C@H]1CCNC(=O)[C@H]([C@@H](C)O)NC(=O)[C@H](CCN)NC(=O)[C@H](CCN)NC(=O)[C@H](CC(C)C)NC(=O)[C@@H](Cc2ccccc2)NC(=O)[C@H](CCN)NC1=O)[C@@H](C)O [Polymyxin B] (X1-[Dab]T[Dab][Dab][Dab][dF]L[Dab][Dab]T; lactam 4-C (inferred); N-terminus assumed)	2.5 to 5 µM	10 µM		resistant to killing by polymyxin B	resistant to killing by polymyxin B	517 nM
